Experimental data from patent publication US20230390277A1, “METHODS TO SENSITIZE TUMORS TO TREATMENT BY IMMUNOTHERAPY” (Ohio State Innovation Foundation, priority 2020, published 2023).

Tests used:
[1] = system: pODD-Luc reporter in MP2 pODD cells; test: in vitro luciferase assay, MP2 pODD cells; format: cell-based, human; conditions: 16 hours, 1 mM
Procedure: (§1) PCR-amplified cassette was then digested with Asci and Pmel restriction enzymes and ligated into pLenti-C-Myc-DDK-IRES-Puro. Correct orientation and sequence was confirmed by Sanger DNA sequencing. HeLa pODD and MIP2 pODD transfectants were selected with 2 μg/ml Puromycin for two weeks. Stable MP2 CMV Cells were generated by lentiviral transduction of MP2 cells with pLenti-CMV-Puro-Luc lentiviral vector (Addgene#17477) with 2 Puromycin selection for two weeks. Cells were grown in Dulbecco's Modified Eagle's Medium (DMEM) containing 25 mM D-glucose, 4 mM glutamine and 44 mM sodium bicarbonate in 5% CO2, if not stated otherwise. The cells were exposed to hypoxia (1% O2) in H35 Hypoxic Workstation (Hypoxygen) with 5% CO2 at 37° C. In some experiments, we used a hypoxia mimetic dimethyloxalyglycine (DMOG) as described. Cell counts and cellular proliferation were established using hemocytometer to determine the cell number and trypan blue exclusion assay to establish the fraction of viable/dead cells. All human cell lines have been authenticated using STR profiling within the past 3 years. All experiments were performed with mycoplasma-free cells.
In vitro luciferase Assay. Proteins were extracted using Luciferase Assay Lysis Buffer (125 mM Tris-HCl, pH 7.5, 11.0 mM DTT, 10 mM EGTA, 50% Glycerol, 5% Triton X-100) and 200 μl/sample were transferred to 96-well plate and D-luciferin was added to the final concentration of 150 μg/ml immediately before the assay. Bioluminescence was measured on a Synergy H1 Hybrid Plate Reader (Biotek) after a 10-minute incubation period (10 slsample, Gain=150) in triplicates.

MP2 CMV cells = test: in vitro luciferase assay, MP2 CMV control cells; format: cell-based, human; conditions: 1 mM DMOG, constitutive CMV reporter
Procedure: as §1
In vitro luciferase Assay. […] Bioluminescence was measured on a Synergy H1 Hybrid Plate Reader (Biotek) after a 10-minute incubation period (10 slsample, Gain=150) in triplicates.

MP2 pODD flank tumors = test: in vivo bioluminescent imaging, heterotopic MP2 pODD flank tumors; design: species or system mouse
Procedure: In vivo bioluminescent imaging. […] For heterotopic flank tumor experiments, 1×10^6 HeLa pODD or 5×10^6 MP2 cells were injected subcutaneously (s.c.) into the flanks of 6-wk-old female (HeLa pODD) or male (N1P2 pODD or MP2 CMV) immunocompromised athymic nu/nu mice. Replicate experiments with groups of 4-6 mice were used for statistical reproducibility. Caliper measurements of opposing diameters were used to calculate the tumor volumes using the modified ellipsoidal formula: tumor volume=(length×width^2)[23]. Upon reaching 100 mm^3, the animals were given 100 mg/kg D-luciferin intraperitoneally and bioluminescence images were captured using IVIS In Vivo Imaging System Lumina II (Perkin Elmer Inc). […] Bioluminescent data were analyzed using living Image software (Perkin Elmer Inc) and calculated as photon flux/sec. Obtained individual photon flux peak values were then normalized to baseline for each mouse and averaged per group. Gas inhalation experiments were performed by switching medical air and carbogen gas sources for the IVIS anesthesia vaporizer. Initial baselines were established in medical air under anesthesia, then the mice were subjected to 30 minutes of either medical air or carbogen rebreathing in an air-tight chamber while awake. After 30 minutes, photon flux was established in respective gas sources as a carrier for isoflurane anesthesia.

PDE10A = target: T1, PDE10A (Homo sapiens, UniProt Q9Y233); test: PDE10A purified enzyme activity assay (BPS Bioscience); format: biochemical; conditions: dose response analysis
T1 construct: purchased BPS Bioscience
T1 sequence (Q9Y233 whole entry): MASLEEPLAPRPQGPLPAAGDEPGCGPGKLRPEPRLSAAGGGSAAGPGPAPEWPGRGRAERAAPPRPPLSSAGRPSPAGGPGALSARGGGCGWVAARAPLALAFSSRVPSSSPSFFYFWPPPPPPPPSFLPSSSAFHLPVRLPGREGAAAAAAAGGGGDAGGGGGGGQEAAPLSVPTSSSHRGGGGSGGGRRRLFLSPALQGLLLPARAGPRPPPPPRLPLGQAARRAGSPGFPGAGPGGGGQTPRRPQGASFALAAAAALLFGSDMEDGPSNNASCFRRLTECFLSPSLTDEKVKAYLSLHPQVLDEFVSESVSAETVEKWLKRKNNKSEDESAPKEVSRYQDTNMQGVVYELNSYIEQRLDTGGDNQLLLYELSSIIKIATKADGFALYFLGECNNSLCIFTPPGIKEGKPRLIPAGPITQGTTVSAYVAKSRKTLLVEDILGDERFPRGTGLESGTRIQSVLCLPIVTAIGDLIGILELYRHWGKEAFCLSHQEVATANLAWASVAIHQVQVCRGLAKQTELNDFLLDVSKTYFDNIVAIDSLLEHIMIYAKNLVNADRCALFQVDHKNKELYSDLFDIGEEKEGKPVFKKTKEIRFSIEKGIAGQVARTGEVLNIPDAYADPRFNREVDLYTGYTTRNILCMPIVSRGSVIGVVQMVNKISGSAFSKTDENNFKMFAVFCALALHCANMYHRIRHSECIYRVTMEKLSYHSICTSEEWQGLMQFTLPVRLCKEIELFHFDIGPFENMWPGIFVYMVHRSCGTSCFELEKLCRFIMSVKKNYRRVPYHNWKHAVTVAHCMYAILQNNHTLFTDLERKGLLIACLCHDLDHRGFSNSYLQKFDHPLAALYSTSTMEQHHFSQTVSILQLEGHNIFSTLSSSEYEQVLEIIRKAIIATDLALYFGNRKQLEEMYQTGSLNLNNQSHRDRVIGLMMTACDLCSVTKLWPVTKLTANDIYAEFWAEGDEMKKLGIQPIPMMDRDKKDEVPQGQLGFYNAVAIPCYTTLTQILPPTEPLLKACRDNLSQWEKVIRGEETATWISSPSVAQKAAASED
Source text: We therefore defined the structure activity relationship (SAR) of PPV relative to two assays: inhibition of cellular OCR by Seahorse XE assay, and inhibition of PDE10A by purified enzyme activity (PDE10A activity assay, BPS Bioscience). […] Because the top portion of PPV was a planar structure like that of rotenone, we decided to focus our attention on the lower portion of the molecule.

[2] = system: orthotopic MP2 CMV tumors; test: in vivo bioluminescent imaging, orthotopic MP2 CMV tumors; design: species or system mouse; conditions: single dose of 2 mg/kg by tail vein, up to 6 hours post injection
Procedure: (§2) Orthotopic Panreatic Xenografts. MP2 PD AC cells (1×10^6) or the indicated derivates were implanted in immune-deficient athymic nu/nu mice following fACLIC approved protocols. Briefly, an incision was placed in the right flank of anesthetized animals the spleen and pancreas liberated. Cells were mixed 1:1 with Matfigel and implanted in the tail of the pancreas in 10 μl. Incision was sutured in 2 layers, animals given long lasting analgesics, and allowed to recover from anesthesia. Mice were returned to housing for post-op care and monitored daily for 4 days. Animals were checked weekly after that by palpation to determine tumor growth.
(§3) In vivo bioluminescent imaging. All animal experiments were performed according to protocols approved by the OSU institutional IAGLIC review (protocol #201200000124-R2), with daily veterinarian observation. For heterotopic flank tumor experiments, 1×10^6 HeLa pODD or 5×10^6 MP2 cells were injected subcutaneously (s.c.) into the flanks of 6-wk-old female (HeLa pODD) or male (N1P2 pODD or MP2 CMV) immunocompromised athymic nu/nu mice. […] Mice were anesthetized with 1.5% isoflurane and bioluminescence was measured every two minutes for the period of 25 minutes to identify peak response of each mouse to D-luciferin. Bioluminescent data were analyzed using living Image software (Perkin Elmer Inc) and calculated as photon flux/sec. […]

CMT167 flank lung tumors = CMT167 flank lung tumors in C57Bl6 mice, sensitization to anti PD-1; format: in vivo, mouse; conditions: given 16 hours prior to sub-optimal anti-PD-1, days 10 and 13
Procedure: C57B16 mice bearing CMT167 flank lung tumors were treated as indicated on days 10 and 13 and relative volume followed.
There are reports in the literature indicating ways that hypoxia affects immune functions of lymphocytes, MDSCs and T regulatory cells infiltrating in the tumor.

[3] = system: orthotopic MP2 pODD tumors; test: in vivo bioluminescent imaging, orthotopic MP2 pODD tumors; design: species or system mouse; conditions: tail vein injection
Procedure: as §2, §3

HeLa pODD flank tumors = test: in vivo bioluminescent imaging, HeLa pODD flank tumors; design: species or system mouse; conditions: 4 mg/kg by tail vein
Procedure: In vivo bioluminescent imaging. All animal experiments were performed according to protocols approved by the OSU institutional IAGLIC review (protocol #201200000124-R2), with daily veterinarian observation. For heterotopic flank tumor experiments, 1×10^6 HeLa pODD or 5×10^6 MP2 cells were injected subcutaneously (s.c.) into the flanks of 6-wk-old female (HeLa pODD) or male (N1P2 pODD or MP2 CMV) immunocompromised athymic nu/nu mice. Replicate experiments with groups of 4-6 mice were used for statistical reproducibility. Caliper measurements of opposing diameters were used to calculate the tumor volumes using the modified ellipsoidal formula: tumor volume=(length×width^2)[23]. Upon reaching 100 mm^3, the animals were given 100 mg/kg D-luciferin intraperitoneally and bioluminescence images were captured using IVIS In Vivo Imaging System Lumina II (Perkin Elmer Inc). Mice were anesthetized with 1.5% isoflurane and bioluminescence was measured every two minutes for the period of 25 minutes to identify peak response of each mouse to D-luciferin. Bioluminescent data were analyzed using living Image software (Perkin Elmer Inc) and calculated as photon flux/sec. Obtained individual photon flux peak values were then normalized to baseline for each mouse and averaged per group. […]

MC38 colorectal tumor = test: MC38 colorectal tumors in C57Bl6 mice, sensitization to anti PD-1; format: in vivo, mouse
Procedure: MC38 tumors grown in C57B16 mice were treated as indicated with irrelevant antibody, anti PD-1, or anti PD-1 after PPV or SMV32 n=5-7, P=<0.05* for PPV and <0.01** for SMV32.
Papaverine and SMV32 enhance PD-1 checkpoint blockade immunotherapy for cancer treatment. Because of the literature describing the immunomodulatory effects of hypoxia^(24-27), we hypothesized that reducing hypoxia may also enhance tumor lymphocyte infiltration and function and improve immune-mediated tumor cell killing. As those of skill in the art recognize, there is a large body of literature and research on increase the supply side of the hypoxia equation, but it has been heretofore an unexpected approach to decrease the tri demand side of the hypoxia equation. We tested tumors grown from the relatively immune-sensitive syngeneic MC38 colorectal tumor line in immuno-competent C5713116 mice. […] In a second cohort, we implanted 1×10^6 cells/mouse and after 5 days, when tumors were 50-100 mm^3, they were randomized into four groups. Therapy was started with either control rat IgG antibody, or a suboptimal dose of anti PD-1(CD279) blocking monoclonal antibody (BioXCell, clone 29F.1A12, 100 μg ip every 3 days).

LLC tumor = test: Lewis Lung Carcinoma (LLC) PD-1 blockade resistant tumor model; format: in vivo, mouse; conditions: treated on days 5, 8
Procedure: LLC tumor bearing mice were treated as indicated on days 5, 8 and relative growth followed. P=NS for PD-1 vs PPV->PD1, 0.04 for PD-i vs SMV32->PD-1.
Finally, as a rigorous test of anti-hypoxia agents as immuno-sensitizers of model tumors grown in mice, we next tested the PD-1 blockade resistant tumor model Lewis Lung Carcinoma (LLC). These tumors have been reported to be refractory to even full dose (200 ug/mouse) PD-1 blocking antibody.

[4] = system: spontaneous canine soft tissue sarcoma; test: BOLD MRI of spontaneous canine soft tissue sarcoma; format: in vivo, dog; conditions: for fraction of tumors responding well (T2* increase): one hour
Procedure: BOLD MRI analysis of canine tumors. Canine patients with primary sarcomas were enrolled in a trial to evaluate the effects of papaverine delivered at a dose of 1 or 2 mg/kg using ire blood oxygen level dependent (BOLD) magnetic resonance imaging (MRI). Dogs were anesthetized with isoflurane in medical air to effect on the bed of a Philips ingenia 3.071 UR scanner. They were first imaged with T1- (TR: 700ms, TE: 9ms, resolution 0.3×0.3×3 mm) and T2-weighted (TR: 3000 ms, TE: 80ms, resolution 0.4×0.4×3 mm) scans in transaxial, coronal, and sagittal orientations to acquire data covering the extent of the tumor. BOLD data were acquired as a series of 60 repeats of a volumetric echo-planar T2-weighted sequence (TR: 3000 ms, TE: 35 ms, resolution 1.6×1.6×4 mm) collected over a period of 3 minutes. In addition, a single slice fast field echo (FIFE) sequence (resolution 0.5×0.5×4 mm) was used to acquire 8 images at echo times from 5 to 75 ms, allowing fitting of pixel T2* values. After these acquisitions, papaverine was delivered intravenously and the BOLD and FEE data were acquired again one hour post-administration. All data were analyzed using the RT Image software package. BOLD data were registered using an affine transformation and percent signal change was calculated on a per-pixel basis: T2* values were fit on a pixel-by-pixel basis using a Levenberg-Marquardt least squares fit to a monoexponential decay function.

Row | SMILES | increase of pODD-Luc signal [1] [×] | luciferase signal response (MP2 CMV cells) | photon flux (MP2 pODD flank tumors; 4 mg intraperitoneally, 4 hours post injection) | PDE inhibition IC25 (PDE10A) [µM] | CMV luciferase activity vs vehicle [2] | tumor growth delay (CMT167 flank lung tumors) | reduction in photon flux compared to vehicle [3] [%] | photon flux reduction, dose comparison (HeLa pODD flank tumors) | effect on PD-1 blockade (MC38 colorectal tumor; 2 mg/kg iv 16 hours prior to suboptimal anti PD-1 (100 μg ip every 3 days)) | tumor growth, compound alone (MC38 colorectal tumor; repeated dosing, no antibody) | photon flux (MP2 pODD flank tumors; intraperitoneal delivery of 2 mg/kg) | therapeutic effect, compound first and PD-1 antibody second (LLC tumor) | fraction of tumors responding well (T2* increase) ([4]; 1 mg/kg IV) | fraction of tumors responding well (T2* increase) ([4]; 2 mg/kg IV) | tumor oxygenation ([4]; 1 or 2 mg/kg IV)
1 | COC(=O)CNC(=O)C(=O)OC [DMOG, dimethyloxalyglycine] | 2.2 | unresponsive | significant increase of photon flux |  |  |  |  |  |  |  |  |  |  |  | 
2 | COc1ccc(Cc2nccc3cc(OC)c(OC)cc23)cc1OC [PPV, papaverine] |  |  |  | 0.65 | no difference | significant tumor growth delay | 45 | greater photon flux reduction than the 2 mg/kg dose | enhance the effectiveness of suboptimal PD-1 blockade | no effect on tumor growth | did not reduce the photon flux | no therapeutic benefit | 1/4 | 3/5 | increases oxygenation
